The values below come from patent US11312726B2, “Thienodiazepine derivatives and application thereof” (priority 2017, dated 2022).

Like-named read-outs stand apart in the source and are kept apart here.

Series [1] has as its system Human breast cancer MDA-MB-231_luc cell subcutaneous xenograft tumor. In words: In vivo pharmacodynamics, MDA-MB-231_luc subcutaneous xenograft tumor model. Particulars: 50 mg/kg PO BID × 21 days. Here is the method: In Vivo Pharmacodynamics Study of Compound 32 on Human Breast Cancer MDA-MB-231_luc Cell Subcutaneous Xenograft Tumor Model
Strain: BALB/c nude mouse
Week-age and weight: 6-8 weeks of age, 18-22 grams of body weight
Supplier: Shanghai Sippr-BK laboratory animal Co. Ltd.
3. Experiment Methods and Steps
Human breast cancer MDA-MB-231_luc cells were cultured in monolayer in vitro and the culture conditions were RPMI-1640 culture medium (supplier: Gibco; article number: 22400-089; manufacturing batch number: 4868546) with 10% fetal bovine serum, 100 U/ml penicillin and 100 μg/ml streptomycin. The culture was performed at 37° C. in 5% CO2. Conventional digestion treatment with pancreatin-EDTA for passage was carried out twice a week. When the cells were in the exponential growth phase, the cells were harvested, counted, and inoculated.
3.2 Tumor Cell Inoculation
0.2 mL of 10×10^6 MDA-MB-231_luc cells were subcutaneously inoculated into the right-back of each nude mouse (PBS:Matrigel=1:1). The grouping and administration was started when the average tumor volume reached 100-150 mm^3.
3.3 Tumor Measurement and Experiment Indices
The experiment index was to investigate whether tumor growth was inhibited, delayed or cured. Tumor diameter was measured twice a week with vernier calipers. The equation for calculating the tumor volume was V=0.5×a×b^2, wherein a and b represented the major and minor diameters of the tumor, respectively.
The tumor inhibition effect of the compound was evaluated by TGI (%) or relative tumor proliferation rate T/C (%). TGI (%) reflected the tumor growth inhibition rate.
Relative tumor proliferation rate T/C (%) was calculated according to the below equation: T/C %=TRTV/CRTV×100% (TRTV: RTV of the treatment group; CRTV: RTV of the negative control group). The relative tumor volume (RTV) was calculated according to the results of the tumor measurement. The calculation equation was RTV=Vt/V0, where V0 was the average tumor volume measured at the grouping and administration (i.e. d0), and Vt was the average tumor volume at the time of a certain measurement. TRTV and CRTV were obtained from the data on the same day.
At the end of the experiment, the tumor weight would be measured and the Tweight/Cweight percentage would be calculated. Tweight and Cweight represented the tumor weights of the administration group and the medium control group, respectively.
Statistical analysis included mean value and standard error (SEM) of the tumor volume of each group at each time point. […] The comparison between two groups was analyzed by T-test, and the comparison between three or more groups was analyzed by one-way ANOVA.

Series [2] can be described thus: In vivo pharmacokinetics test in mice. Particulars: female Balb/c mice; for AUC(0-inf): read-out: Curve area (0-inf) AUC0-inf; for AUC(0-t): read-out: Curve area (0-t) AUC0-last; for half-life: read-out: Half life T1/2 (converted). On the procedure:
In Vivo Pharmacokinetics Test of Compound 32 in Mice
Female Balb/c mice were used as test animals. The compound 32 was administrated intravenously and intragastrically to mice, then the drug concentrations in the plasma at different time points were determined by the LC/MS/MS method. The in vivo pharmacokinetic behavior of compound 32 in mice was studied, and its pharmacokinetic characteristics were evaluated.
1.1 Experiment drug: Compound 32
1.2 Experiment animals: Sixteen healthy adult female Balb/c mice were divided into four groups according to the principle of similar body weight, with four mice in each group. The animals were purchased from Shanghai Lingchang BioTech Co., Ltd. of Shanghai SLAC Laboratory Animal Co., Ltd., and the animal production license number was SCXK (Shanghai) 2013-0018.
An appropriate amount of the sample was taken, 5% final volume of DMSO was added, and then 95% final volume of 20% HP-β-CD was added. The mixture was ultrasonically stirred to obtain a 0.5 mg/mL clear solution. After filtration, it was used for the intravenous administration.
An appropriate amount of the sample was taken, and dissolved in a 0.5% sodium carboxymethyl cellulose solution. The mixture was ultrasonically stirred to obtain a 0.5 mg/mL homogeneous suspension, which was used for the intragastric administration.
Eight female Balb/c mice were divided into two groups. After fasting overnight, the first group was administered intravenously with the administration volume of 2.5 mL/kg and the dosage of 1 mg/kg. […]
After the female Balb/c mice were intravenously administrated, 30 μL of blood was taken from different mice at each time point of 0.0833, 0.25, 0.5, 1, 2, 4, 8 and 24 hours, and placed in test tubes containing 2 μL of EDTA-K2; and after the female Balb/c mice were intragastrically administrated, 30 μL of blood was taken at an alternative location at each time point of 0.25, 0.5, 1, 2, 4, 8 and 24 hours, and placed in test tubes containing 2 μL of EDTA-K2. The tube was centrifuged at 3000 g for 15 minutes to separate the plasma, and the separated plasma was stored at −60° C. Animals could take food 2 hours after the administration.
The LC/MS/MS method was used to measure the content of the compound to be tested in the plasma after the intravenous and intragastric administration to the mice. The linear range of the method was 2.00-6000 nmol/L; the plasma samples were analyzed after the protein precipitation by acetonitrile treatment.

[3] abbreviates: mouse, plasma, po, Intragastric, 3 mg/kg (table; text says 2 mg/kg).
[4] abbreviates: mouse, plasma, Intravenous, 1 mg/kg.

Consider `Cc1sc2c(c1C)C(c1ccc(Cl)cc1)=N[C@@H](CC(=O)Nc1ccc3c(c1)COC3=O)c1nnc(C)n1-2` [Compound 32], for which, in series [1], the “change in body weight of the animals” value is “no significant change” and the “tolerance of the animals” value is listed as “well tolerated”. Moreover, in series [1] (21st day after administration), the “relative tumor proliferation rate T/C” value stood at 52.99% and the “tumor growth inhibition rate TGI” value was 54.85%. Besides, in series [2], the “absorption (in words)” value was “good absorption” and the “pharmacokinetic clearance (in words)” value is recorded as “low pharmacokinetic clearance”. In series [2] (setting [3]), the AUC(0-inf) is 2.82 µM·h, the AUC(0-t) amounted to 2.74 µM·h and the half-life is 1.47 h. In addition, in series [2] (mouse, plasma, po, Intragastric, 3 mg/kg (table; text says 2 mg/kg), read-out: Time to peak Tmax), the Tmax is 1 h. Further, the Vd in series [2] (mouse, plasma, Intravenous, 1 mg/kg, read-out: Apparent distribution volume Vdss) was determined as 1.19 L/kg. Moreover, in series [2] (mouse, plasma, Intravenous, 1 mg/kg, read-out: Clearance rate Cl), the clearance came out at 12.5 mL/min/kg. For the same molecule, in series [2] (setting [4]), the AUC(0-inf) is 2.5 µM·h, the AUC(0-t) is 2.49 µM·h and the half-life was 1.09 h. In addition, the Cmax in series [2] (mouse, po, Intragastric, 3 mg/kg (table; text says 2 mg/kg), plasma, read-out: Drug concentration in blood Cmax) is 930 nM.
